The source of these data is patent US5981517A, “Androstene derivatives” (priority 1997, dated 1999).

One data set in a line: in vitro. The format is in vitro ADME. The settings on record: rat, lung cytosol. As for the experimental part:
To determine that the compounds of the invention can be stable during the incubation period, the test compounds A, B, C, and D were investigated for their stabilities at the incubation conditions, which are room temperature and 2 hours, for receptor binding studies. The frozen cytosol which was made for the receptor binding study was thawed in a water bath and diluted with 1 part of incubation buffer (10 mM Tris/HCl, 10 mM sodium molybdate, and 2 mM 1,4-dithiothreitol) containing a 15 mM concentration of enzyme inhibitor, diisopropyl fluorophosphate. Portions (560 μL) of the diluted cytosol were added to centrifuge tubes containing 80 μL portions of blank incubation buffer instead of volume of tracer ([^3 H]triamcinolone acetonide) which would be used in the receptor binding study (RBS), 80 μL of solution of a Δ^1 -cortienic acid (0.1 mM) in buffer (the final concentration of Δ^1 -cortienic acid in the incubation medium was […]), and 80 μL of 100,000 nM of concentrations of test compounds in ethanol to give a final concentration of 10,000 nM. This mixture was kept at room temperature for 2 hours. Samples of 0.1 mL were taken at appropriate time intervals (0, 0.5, 1, 1.5, 2 hours) and were mixed with 0.2 mL of acetonitrile containing 5% DMSO. Each mixture was centrifuged and the supernatant were injected in the HPLC.
Male Sprague-Dawley rats, each weighing 150 to 200 g, were used 6 days after adrenalectomy. Rats were sacrificed by decapitation. Immediately after resection of the lungs, the tissue was frozen in ice. The cytosol was prepared using a slight modification of a previously described method (Dahlberg, 1984); After addition of 6 volumes of ice-cold incubation buffer (10 mM Tris/HCl, 10 mM sodium molybdate, and 2 mM 1,4-dithiothreitol), the tissue was homogenized with the Virtis 45 homogenizer at full speed, for 4 periods of 10 seconds with a 10-second cooling period between each step. The homogenate was centrifuged at 35,000 g for 1 hour at 4° C. in a Beckman ultracentrifuge L8-70M equipped with a T170 rotor. Portions (5 ml) of the cytosol were frozen in liquid nitrogen and stored at -80° C.

The target in data set [1] is T1, rat lung glucocorticoid receptor (Rattus norvegicus, UniProt P06536).
T1 construct: Immediately after resection of the lungs, the tissue was frozen in ice; The cytosol was prepared; from tissue; host or cells: lung cytosol of adrenalectomized male Sprague-Dawley rats
T1 sequence (P06536 1-795): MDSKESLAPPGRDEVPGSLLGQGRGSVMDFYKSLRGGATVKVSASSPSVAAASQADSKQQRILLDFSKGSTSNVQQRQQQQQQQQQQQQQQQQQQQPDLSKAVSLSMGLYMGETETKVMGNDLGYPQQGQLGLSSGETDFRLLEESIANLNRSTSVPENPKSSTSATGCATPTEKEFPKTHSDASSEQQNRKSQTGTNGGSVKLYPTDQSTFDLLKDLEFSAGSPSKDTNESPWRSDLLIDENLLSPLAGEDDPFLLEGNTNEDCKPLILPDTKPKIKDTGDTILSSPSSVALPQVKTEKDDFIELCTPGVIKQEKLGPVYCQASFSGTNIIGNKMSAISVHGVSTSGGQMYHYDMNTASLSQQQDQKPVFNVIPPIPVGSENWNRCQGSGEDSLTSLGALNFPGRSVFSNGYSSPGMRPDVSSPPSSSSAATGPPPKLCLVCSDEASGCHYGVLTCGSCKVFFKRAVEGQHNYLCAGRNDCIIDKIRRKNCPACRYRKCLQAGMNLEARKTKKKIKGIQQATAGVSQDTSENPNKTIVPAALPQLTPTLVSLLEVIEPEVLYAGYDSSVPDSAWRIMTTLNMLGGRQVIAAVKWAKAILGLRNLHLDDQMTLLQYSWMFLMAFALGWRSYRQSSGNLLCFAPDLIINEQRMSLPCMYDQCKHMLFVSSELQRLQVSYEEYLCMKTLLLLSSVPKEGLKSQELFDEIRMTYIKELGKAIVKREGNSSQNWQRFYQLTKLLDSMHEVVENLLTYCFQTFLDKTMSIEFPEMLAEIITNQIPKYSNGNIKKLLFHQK
Nature of the data set: Receptor binding studies ([3H]triamcinolone acetonide displacement). The settings on record: further receptor binding studies (Table X); dexamethasone = 100; * mean ± SE of 3-5 results. As for the experimental part:
Male Sprague-Dawley rats, each weighing 150 to 200 g, were used 6 days after adrenalectomy. Rats were sacrificed by decapitation. Immediately after resection of the lungs, the tissue was frozen in ice. […] Portions (5 ml) of the cytosol were frozen in liquid nitrogen and stored at -80° C.
The cytosol was thawed in a water bath and diluted with 1 part of incubation buffer containing a 15 mM concentration of diisopropyl fluorophosphate. […] After a 2 hour incubation period at room temperature (24° C.), the unbound steroid was removed by addition of a 2% suspension of activated charcoal in incubation buffer (400 μL). The mixture was incubated for 5 minutes at room temperature and then was centrifuged at about 10,000 g for 3 minutes in the microcentrifuge. The radioactivity (cpm) in the supernatant (400 μL) was determined by liquid scintillation counting.
The data is fitted to the following logistic function:
B=T-T * C^N /(C^N +IC50^N)+NS,
where B=CPM in the presence of competitor, T=CPM in the absence of competitor, C=competitor concentration, N=Hill slope factor, and NS=cpm under non-specific binding conditions.
For the representative compound of the invention B, receptor binding affinity was investigated with and without Δ^1 -cortienic acid in the incubation solution to study the effect of Δ^1 -cortienic acid on the receptor binding.
Further studies to evaluate the relative receptor binding affinities of compounds of the invention, other compounds of formula (VII) hereinabove and well-known anti-inflammatory steroids were undertaken, using the methods described in the RECEPTOR BINDING STUDIES set forth above. […] For comparison purposes, the following compounds having formula (VII) above were also tested: […]

Data set [2] relates to forearms of a human volunteer. Nature of the data set: Further human vasoconstriction testing, Method 1. The format is in vivo. As for the experimental part:
The mixtures, in 50 μL amounts, were applied to circular patches (8 mm diameter). After evaporation of ethanol, the patches were applied to the forearms of a human volunteer, and covered with a water impervious film for 3 hr. The intensity of vasoconstriction (scale 0-4) was judged at various time intervals after removal of the patches. The grading scale was as follows: 0, normal skin; 1, slight pallor of indistinct outline; 2, pallor with at least two corners outlined; 3, even pallor with a clear outline of the application sites; 4, very intense pallor. The skin tests (2-4 tests on each compound) were performed on the same person.

The mark [3] stands for this setting: 24 Hours, 1 hour re-occlusion at 20-21 hours, 0.01 mM.
Where [4] appears, read: 24 Hours, 1 hour re-occlusion at 20-21 hours, 0.05 mM.
Setting [5] is: 24 Hours, 1 hour re-occlusion at 20-21 hours, 0.1 mM.
The mark [6] stands for this setting: 24 Hours, 1 hour re-occlusion at 20-21 hours, 0.5 mM.

Some results are limits rather than exact numbers.

For orientation: share remaining means the share of the starting amount still present when the sample was taken. In “in vitro”, `CCOC(=O)[C@@]1(OC(=O)CCl)CC[C@H]2[C@@H]3CCC4=CC(=O)C=C[C@]4(C)[C@H]3[C@@H](O)C[C@@]21C` [Compound R, ethyl 17α-chloroacetoxy-11β-hydroxyandrosta-1,4-dien-3-one-17β-carboxylate] gave a fraction remaining at 2 h of 30%. Further, in data set [1], the RBA was 22. The Vasoconstriction activity in data set [2] (3 Hours, 0.01 mM) worked out at 0; in data set [2] (3 Hours, 0.05 mM) it was 0; in data set [2] (3 Hours, 0.1 mM), 0; in data set [2] (3 Hours, 0.5 mM) it was 1; in data set [2] (3 Hours, 1 mM) it was 1; in data set [2] (3 Hours, 5 mM) it was 1. Moreover, the Vasoconstriction activity was determined as 0 in data set [2] (20 Hours, 0.01 mM); 0 in data set [2] (20 Hours, 0.05 mM); 0 in data set [2] (20 Hours, 0.1 mM); 0 in data set [2] (20 Hours, 0.5 mM); 0 in data set [2] (20 Hours, 1 mM); 0 in data set [2] (20 Hours, 5 mM). The Vasoconstriction activity in data set [2] (setting [3]), in data set [2] (setting [4]), in data set [2] (setting [5]) and in data set [2] (setting [6]) was 0 throughout.

In “in vitro”, `CCOC(=O)[C@@]1(OC(=O)C(C)Cl)CC[C@H]2[C@@H]3CCC4=CC(=O)C=C[C@]4(C)[C@H]3[C@@H](O)C[C@@]21C` (stereo partly drawn) [Q, ethyl 17α-(α-chloro)propionyloxy-11β-hydroxyandrosta-1,4-dien-3-one-17β-carboxylate] gave an amount remaining at 2 h greater than 90%. In addition, in data set [1], the RBA is recorded as 88. Also, the Vasoconstriction activity in data set [2] (3 Hours, 0.01 mM) worked out at 0; in data set [2] (3 Hours, 0.05 mM) it was 0; in data set [2] (3 Hours, 0.1 mM) it was 0; in data set [2] (3 Hours, 0.5 mM) it was 1; in data set [2] (3 Hours, 1 mM) it was 1; in data set [2] (3 Hours, 5 mM) it was 3. For the same molecule, the Vasoconstriction activity in data set [2] (20 Hours, 0.01 mM) is listed as 0; in data set [2] (20 Hours, 0.05 mM), 0; in data set [2] (20 Hours, 0.1 mM), 0; in data set [2] (20 Hours, 0.5 mM), 1; in data set [2] (20 Hours, 1 mM), 1; in data set [2] (20 Hours, 5 mM) it was 1. The Vasoconstriction activity in data set [2] (setting [3]) was 0; in data set [2] (setting [4]), 0; in data set [2] (setting [5]), 1; in data set [2] (setting [6]) it was 2.

In “in vitro”, `CCOC(=O)[C@@]1(OC(=O)CC)CC[C@H]2[C@@H]3CCC4=CC(=O)C=C[C@]4(C)[C@H]3[C@@H](O)C[C@@]21C` [Compound P, reference compound] gave a share remaining at 2 h greater than 90%. The molecule also registered an RBA in data set [1] of 38. Further, the Vasoconstriction activity in data set [2] (3 Hours, 0.01 mM) came out at 0; in data set [2] (3 Hours, 0.05 mM), 0; in data set [2] (3 Hours, 0.1 mM), 0; in data set [2] (3 Hours, 0.5 mM), 1; in data set [2] (3 Hours, 1 mM), 2; in data set [2] (3 Hours, 5 mM), 3. Also, the Vasoconstriction activity came out at 0 in data set [2] (20 Hours, 0.01 mM); 0 in data set [2] (20 Hours, 0.05 mM); 0 in data set [2] (20 Hours, 0.1 mM); 0 in data set [2] (20 Hours, 0.5 mM); 1 in data set [2] (20 Hours, 1 mM); 1 in data set [2] (20 Hours, 5 mM). The Vasoconstriction activity in data set [2] (setting [3]) is on record as 0; in data set [2] (setting [4]) it was 0; in data set [2] (setting [5]) it was 1; in data set [2] (setting [6]), 2.
